In ChEMBL document CHEMBL1201862, “PubChem BioAssay data set” (2004):
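1) Cells in 96-well plates. 2) Compound, 48 h, 5 concentrations. 3) Linear interpolation between surrounding doses. 4) Unreached endpoint = highest concentration. GI50 = concentration required for 50% inhibition of growth.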 Activity calls are given as the source filed them. Cut-off read from the data, not from the text of the source: active = GI50 up to about 1.1 µM and inactive = higher.

Tests used:
Test in all cases: inhibition of tumour cell growth, NCI panel, 48 h
OVCAR-5 = system: OVCAR-5
TK-10 = system: TK-10
PC-3 = system: PC-3
MDA-N = system: MDA-N
Malme-3M = system: Malme-3M
T47D = system: T47D
HT-29 = system: HT-29
SK-MEL-5 = system: SK-MEL-5
OVCAR-4 = system: OVCAR-4
K562 = system: K562
NCI-H226 = system: NCI-H226
U-251 = system: U-251
786-0 = system: 786-0
HOP-92 = system: HOP-92
SF-295 = system: SF-295
SF-268 = system: SF-268
ACHN = system: ACHN
HOP-62 = system: HOP-62
HL-60 = system: HL-60

Compound | GI50 (OVCAR-5) | GI50 (TK-10) | GI50 (PC-3) | GI50 (MDA-N) | GI50 (Malme-3M) | GI50 (T47D) | GI50 (HT-29) | GI50 (SK-MEL-5) | GI50 (OVCAR-4) | GI50 (K562) | GI50 (NCI-H226) | GI50 (U-251) | GI50 (786-0) | GI50 (HOP-92) | GI50 (SF-295) | GI50 (SF-268) | GI50 (ACHN) | GI50 (HOP-62) | GI50 (HL-60)
N#C/C(=C\c1ccc([N+](=O)[O-])o1)c1n[nH]c(Cc2ccccc2)n1 | 1.64 µM (inactive) | 2 µM (inactive) | 2.45 µM (inactive) | 1 µM (active) | 1.94 µM (inactive) | 2 µM (inactive) | 1.05 µM (active) | 1.05 µM (active) | 1.82 µM (inactive) | 1.55 µM (inactive) | 1.65 µM (inactive) | 2.81 µM (inactive) | 0.847 µM (active) | 2.77 µM (inactive) | 7.26 µM (inactive) | 0.641 µM (active) | 1.78 µM (inactive) | 2.62 µM (inactive) | 3.06 µM (inactive)
O=[N+]([O-])c1cc2[nH]nnc2c2nonc12 | 29 µM (inactive) | 40.4 µM (inactive) | 49.4 µM (inactive) | 20.6 µM (inactive) | 35.2 µM (inactive) | > 100 µM (inactive) | 29.6 µM (inactive) | 11.9 µM (inactive) | 30.1 µM (inactive) | 22.8 µM (inactive) | 19.3 µM (inactive) | 28.4 µM (inactive) | 38.5 µM (inactive) | 36.5 µM (inactive) | 31.7 µM (inactive) | 59 µM (inactive) | 23.4 µM (inactive) | 55 µM (inactive) | 5.45 µM (inactive)
O=C(Nc1ccc(Cl)cc1)c1cc(S(=O)(=O)Nc2nc3cccnc3[nH]2)c(SSc2cc(Cl)c(C(=O)Nc3ccc(Cl)cc3)cc2S(=O)(=O)Nc2nc3cccnc3[nH]2)cc1Cl | > 100 µM (inactive) | > 100 µM (inactive) | > 100 µM (inactive) | > 100 µM (inactive) | > 100 µM (inactive) | > 100 µM (inactive) | > 100 µM (inactive) | > 100 µM (inactive) | > 100 µM (inactive) | 3.86 µM (inactive) | > 100 µM (inactive) | > 100 µM (inactive) | > 100 µM (inactive) | > 100 µM (inactive) | > 100 µM (inactive) | > 100 µM (inactive) | > 100 µM (inactive) | > 100 µM (inactive) | > 100 µM (inactive)
COC(=O)C1C(=O)N(C)C(=O)N2CCCC12 (stereo not drawn) | > 100 µM (inactive) | > 100 µM (inactive) | > 100 µM (inactive) | > 100 µM (inactive) | > 100 µM (inactive) | > 100 µM (inactive) | > 100 µM (inactive) | > 100 µM (inactive) | > 100 µM (inactive) | > 100 µM (inactive) | > 100 µM (inactive) | > 100 µM (inactive) | > 100 µM (inactive) | > 100 µM (inactive) | > 100 µM (inactive) | > 100 µM (inactive) | > 100 µM (inactive) | > 100 µM (inactive) | > 100 µM (inactive)
CCOC(=O)OC1C(Br)C2CCC1(C)C2(C)C (stereo not drawn) | 17.7 µM (inactive) | 14.2 µM (inactive) | 11.3 µM (inactive) | 15 µM (inactive) | 16.7 µM (inactive) | 15.6 µM (inactive) | 6.05 µM (inactive) | 14.5 µM (inactive) | 11.7 µM (inactive) | 5.79 µM (inactive) | 12 µM (inactive) | 13 µM (inactive) | 14.1 µM (inactive) | 13.2 µM (inactive) | 15.3 µM (inactive) | 13.7 µM (inactive) | 15.3 µM (inactive) | 16.6 µM (inactive) | 6.21 µM (inactive)
CC(=O)O[C@H]1CC[C@@]2(C)C(=CC[C@H]3[C@@H]4C/C(=C\c5ccncc5)[C@H](OC(C)=O)[C@@]4(C)CC[C@@H]32)C1 | 16.9 µM (inactive) | 22.5 µM (inactive) | 18.2 µM (inactive) | 18.3 µM (inactive) | 7.67 µM (inactive) | 14.2 µM (inactive) | 6.41 µM (inactive) | 5.47 µM (inactive) | 4.65 µM (inactive) | 3.15 µM (inactive) | 11.8 µM (inactive) | 10 µM (inactive) | 11.3 µM (inactive) | 3.48 µM (inactive) | 5.02 µM (inactive) | 10.9 µM (inactive) | 15.1 µM (inactive) | 4.54 µM (inactive) | 4.01 µM (inactive)
Cc1cn(CC2=NCC(O)CN2)c(=O)[nH]c1=O (stereo not drawn) | > 100 µM (inactive) | > 100 µM (inactive) | > 100 µM (inactive) | > 100 µM (inactive) | > 100 µM (inactive) | > 100 µM (inactive) | > 100 µM (inactive) | > 100 µM (inactive) | > 100 µM (inactive) | > 100 µM (inactive) | > 100 µM (inactive) | > 100 µM (inactive) | > 100 µM (inactive) | > 100 µM (inactive) | > 100 µM (inactive) | > 100 µM (inactive) | > 100 µM (inactive) | > 100 µM (inactive) | > 100 µM (inactive)
